Data: patent US8637043B2, “Compositions useful as ligands for the formyl peptide receptor like 1 receptor and methods of use thereof” (Chemocentryx, Inc., priority 2001, dated 2014)
Ends that are not written are not given here.

B1: CKβ8-1(25-116): novel NH2-terminal truncated form of CKβ8-1, SEQ ID NO: 16, human recombinant chemokine (protein, listed as Homo sapiens)
chain: MLWRRKIGPQMTLSHAAGFHATSADCCISYTPRSIPCSLLESYFETNSECSKPGVIFLTKKGRRFCANPSDKQVQVCMRMLKLDTRIKTRKN

Columns and labels:
[1] = tested on: OVA-specific IgG; assay: Adjuvant activity, anti-OVA antibodies in Rhesus monkeys (Example 16); type: in vivo; conditions: effectiveness as adjuvant
Experimental: First, 96-well U-bottom plastic dishes were coated overnight with 1 μg ovalbumin (OVA) in 100 μl PBS per well. The next day, the dishes were rinsed with PBS, blocked with PBS containing 5% fetal bovine serum (FBS), and rinsed with PBS again. Plasma samples from experimental animals (see below) were diluted 10^2- to 10^5-fold and added to the dishes for 2 hours, after which the dishes were again rinsed with PBS. The dishes were then incubated with biotinylated goat anti-monkey IgG detection antibodies, then rinsed with PBS and incubated with streptavidin-linked horseradish peroxidase (SA-HRP). After a final rinsing with PBS, the HRP substrate 2,2′-Azinobis [3-ethylbenzothiazoline-6-sulfonic acid]-diammonium salt was added. Color development was measured with an ELISA plate reader at 405 nm, and optical density (OD) units were converted to arbitrary “antibody units,” where a unit is defined as the inverse of the plasma dilution that produces 50% of the maximum response from a standard curve obtained by serial dilution of an ascites collected from OVA-injected mice and containing OVA-specific antibodies.
Since the SHAAYtide (SEQ ID NO:6) and the chemokines mC10 and vMCK-2 recruited APCs, including dendritic cells, to the site of injection, these polypeptides were tested for their ability to act as immunization adjuvants to augment the immune response to a co-injected foreign antigen. […]

[2] = tested on: OVA-specific antibody; assay: OVA-specific antibody responses with IFA or alum adjuvant in Rhesus monkeys (Example 18); type: in vivo
Experimental: First, 96-well U-bottom plastic dishes were coated overnight with 1 μg ovalbumin (OVA) in 100 μl PBS per well. The next day, the dishes were rinsed with PBS, blocked with PBS containing 5% fetal bovine serum (FBS), and rinsed with PBS again. Plasma samples from experimental animals (see below) were diluted 10^2- to 10^5-fold and added to the dishes for 2 hours, after which the dishes were again rinsed with PBS. The dishes were then incubated with biotinylated goat anti-monkey IgG detection antibodies, then rinsed with PBS and incubated with streptavidin-linked horseradish peroxidase (SA-HRP). After a final rinsing with PBS, the HRP substrate 2,2′-Azinobis [3-ethylbenzothiazoline-6-sulfonic acid]-diammonium salt was added.
Different types of immune responses can be induced in mammals by varying parameters such as the dose of antigen, the formulation, the route of administration, and the type of adjuvant.

[3] = tested on: pariental L1.2 cells; assay: Migration of parental L1.2 cells; type: cell-based, murine
Experimental: Migration assays were performed on monocytes and neutrophils. Human monocytes and neutrophils (prepared as in Exampe 2) were harvested and resuspended in chemotaxis medium (CM). The CM consisted of Hank's buffered salt solution (Gibco, Mass.) containing CaCl2 (1 mM) and MgSO4 (1 mM) with added 0.1% BSA (Sigma, St. Louis, Mo.). The assays were performed in 96-well ChemoTx® microplates (Neuroprobe, Mass.). Leukotactin, MlP-1α and chemokines (CKβ8(1-99), CKβ8(25-99), CKβ8-1(1-116) or CKβ8-1(25-116), prepared as in Example 1) were added to the lower wells (final volume 29 μL), and 20 μL of cell suspension (5×10^6 cells/mL for monocytes; 2.5×10^6 cells/mL for neutrophils) added to the polycarbonate filters (5 μm pore size for monocytes; 3 μm pore size for neutrophils). After incubation for 90 min (37° C., 100% humidity, 5% CO2), cells were removed from the upper surface of the filter by scraping. Cells that migrated into the lower chamber were quantified using the Quant cell proliferation assay kit (Molecular Probes, Oreg.).
The ability of CKβ8-1 (25-116) to elicit the migration of the FPRL1 expressing cells was examined. Test conditions were as in Example 5.

[4] = tested on: native L1.2 cells; assay: Calcium flux in parental L1.2 cells or cells transfected with other chemokine receptors; type: cell-based, murine; conditions: pariental cells or cells transfected with other chemokine receptors
Description: The functional activities of CKβ8-1 (25-116) were investigated in human FPRL1-L1.2 transfectants and in native L1.2 cells. Stable expression of formyl peptide-like receptor 1 (FPRL1) in L.1.2 cell was obtained as follows. Full length cDNA encoding FPRL1 was cloned, using the polymerase chain reaction (PCR), from genomic DNA isolated from undifferentiated HL-60 cells. The polymerase chain reaction product was cloned into pcDNA3.1 (Invitrogen, Carlsbad, Calif.) using standard molecular cloning procedures and completely sequenced to confirm identity. Twenty micrograms of the FPRL1/pcDNA3.1 construct were linearized by digestion with Bsm1 (New England Biolabs, Beverly, Mass.) and used to transfect the murine B cell line L1.2 as follows. Twenty five million cells were washed twice and resuspended in 0.8 ml of PBS. The cells were incubated for 10 min at room temperature with the linearized FPRL/pcDNA3.1 construct DNA and transferred to a 0.4-cm cuvette, and a single electroporation pulse was applied at 250 V, 960 μF. Electroporated cells were incubated for 10 min at room temperature and transferred to culture at 37° C. in RPMI supplemented with 10% FCS. […] After 2-3 weeks under drug selection, stable geneticin-resistant FPLR1 expressing cells were assessed for their ability to mobilize Ca^++ in response to SHAAGtide or CKbeta 8-1 at concentrations of 1 to 1000 nM. […]

Molecule | Notes: adjuvant [1] | effect of co-administration on the OVA with IFA response ([2]; IFA adjuvant) | effect of co-administration on the IgG response induced by OVA plus alum ([2]; alum adjuvant) | migration of parental L1.2 cells [3] | induced calcium release [4]
MLWRRKIGPQMTLSHAAY [SEQ ID NO: 6] | effective | did not diminish the OVA with IFA response | dramatically reduced the IgG response induced by OVA plus alum | – | –
B1 | – | – | – | did not migrate | not observed
